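Five concentrations, 48 hours, 96-well plates. Definition used: TGI = concentration required for complete inhibition of growth.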
Tests used:
Experiment in all cases: inhibition of tumour cell growth, NCI panel, 48 h
[1] = system: RXF-631 renal
[2] = system: DLD-1 colon
[3] = system: HOP-18 NSCLC
[4] = system: SNB-78 CNS
[5] = system: DMS 114 small cell lung
[6] = system: KM20L2 colon
[7] = system: DMS 273 small cell lung

SMILES: Cc1cn(C2CC(O)C(CO)C2C)c(=O)[nH]c1=O (stereo not given)
- TGI [1]: > 100000 nM
- TGI [2]: > 100 µM
- TGI [3]: > 100 µM
- TGI [4]: > 100 µM
- TGI [5]: > 100 µM
- TGI [6]: > 100 µM
- TGI [7]: > 100 µM

SMILES: CC(C)(C)C#C[P+](c1ccccc1)(c1ccccc1)c1ccccc1
- TGI [1]: 2630 nM
- TGI [2]: 2.5 µM
- TGI [3]: 6.34 µM
- TGI [4]: 1.35 µM
- TGI [6]: 1.19 µM

SMILES: CO/C(=N\N=C\c1ccc(Cl)cc1)c1ccncc1
- TGI [2]: > 100 µM
- TGI [4]: > 100 µM
- TGI [5]: > 100 µM
- TGI [6]: > 100 µM
- TGI [7]: > 100 µM

SMILES: C=Nc1ccc([N+](=O)[O-])cc1
- TGI [2]: > 100 µM
- TGI [3]: > 92.9 µM
- TGI [4]: > 100 µM
- TGI [5]: > 100 µM
- TGI [6]: > 100 µM
- TGI [7]: > 100 µM

SMILES: COC(=O)C1=C(C)N2CCCOC2(C)C(C(=O)OC)C1c1cccc(Cl)c1 (stereo not given)
- TGI [5]: 60.5 µM
- TGI [6]: 64.4 µM

Reference: PubChem BioAssay (NCI)
